# From patent EP0450065A1, “ANTIVIRAL AGENT” (priority 1988, dated 1990)
# Read-outs that look alike come from different tables or passages of the source.
# Columns and labels:
# [1] = system: herpes simplex virus type 1 (HF strain); test: Control of CPE (cytopathic effect) manifestation in vero cells; assay type: cell-based; design: key to Cytopathic effect [CPE] (3days) Average / Cytopathic effect [CPE] (5days) Average / Cytopathic effect [CPE] (6days) Average: CPE score: 0 none, 0.5 minute spots, 1 = 25%, 2 = 50%, 3 = ≥75% cells; key to Cytopathic effect [CPE] (3days) △CPE / Cytopathic effect [CPE] (5days) △CPE / Cytopathic effect [CPE] (3days) ΔCPE / Cytopathic effect [CPE] (6days) ΔCPE: ΔCPE = difference of average CPE score (0–3 scale) from control; details: 20 μg/ml, HSV-1 (HF strain), Example 5
# Method: (§1) In vitro antiviral activity of Compound A against herpes simplex virus type 1 (HF strain) Compound A was tested for antiviral effect by the following two methods.
# (§2) Vero cells cultured and grown in a monolayer on microplates to test for cytopathic effect due to viral infection, with solutions of Compound A diluted to varying ratios and solutions of virus diluted to varying ratios added severally thereto in a volume of 0.1 ml, were cultured under the conditions of 5% CO₂ and 37°C and were examined for CPE manifestation under a microscope. The observation was continued for five to six days.
# (§3) The degree of CPE brought about by viral infection was rated on the five-point scale, wherein 3 stands for CPE observed on not less than 75% of cultured cells, 2 for CPE observed on 50% of cultured cells, 1 for CPE observed on 25% of cultured cells, 0.5 for occurrence of one to two extremely minute DPE spots, and 0 for perfect absence of recognizable CPE. The CPE scores obtained at the four holes in each microplate were averaged and the difference of the average from the average obtained in the control (omitting the treatment with a chemical) was reported as ΔCPE.
# (§4) In vitro antiviral effect of Compound A against herpes simplex virus type 1 (HF strain) The test was carried out by following the procedure of Example 3.
# [2] = system: herpes simplex virus type 1 (HF strain); test: 50% Tissue culture infective dose (TCID50), Read-Munch method, negative logarithm of virus dilution; assay type: cell-based
# Method: as §1
# (§5) The amount of virus infecting 50% of tissues (TCID₅₀) was determined by the Read-Munch method and expressed in negative logarithm of the maximum radio of dilution of virus. The difference of the amount thus determined from the amount found in the control (omitting the treatment with a chemical) was reported as ΔTCID₅₀. A sample whose ΔCPE's found on the last day of observation and on each of the days spent for the observation exceeded 1.0 was evaluated as effective.
# as §4
# [3] = system: herpes simplex virus type 2 (169 strain); test: Control of CPE (cytopathic effect) manifestation in vero cells; assay type: cell-based; design: key to Cytopathic effect [CPE] (3days) Average / Cytopathic effect [CPE] (5days) Average / Cytopathic effect [CPE] (6days) Average: CPE score 0-3: 3 = ≥75% cells, 2 = 50%, 1 = 25%, 0 = none; key to Cytopathic effect [CPE] (3days) △CPE / Cytopathic effect [CPE] (5days) △CPE / Cytopathic effect [CPE] (6days) △CPE: difference of mean CPE score (0-3 scale) from untreated control; details: 20 μg/ml, HSV-2 (169), Example 6
# Method: as §2, §3
# (§6) In vitro antiviral activity of Compound A against herpes simplex virus type 2 (169 strain) The test was carried out by following the procedure of Example 3.
# [4] = system: herpes simplex virus type 2 (169 strain); test: 50% Tissue culture infective dose (TCID50), Read-Munch method, negative logarithm of virus dilution; assay type: cell-based; design: key to Cytopathic effect [CPE] (5days) TCID50 / Cytopathic effect [CPE] (3days) TCID50 / Cytopathic effect [CPE] (6days) TCID50: negative log of maximum virus dilution infecting 50% of tissues; details: 20 μg/ml, HSV-2 (169), Example 6
# Method: as §5, §6
# [5] = system: herpes simplex virus type 1 (KOS strain); test: Control of CPE (cytopathic effect) manifestation in vero cells; assay type: cell-based; details: HSV-1 (KOS), Example 7; for Cytopathic effect [CPE] (3days) △CPE / Cytopathic effect [CPE] (5days) △CPE: difference from control
# Method: as §2, §3
# (§7) Antiviral activity of Compound A and Compound B against herpes simplex virus type 1 (KOS strain) The test was carried out by following the procedure of Example 3.
# [6] = system: herpes simplex virus type 1 (KOS strain); test: 50% Tissue culture infective dose (TCID50), Read-Munch method, negative logarithm of virus dilution; assay type: cell-based; design: key to Cytopathic effect [CPE] (5days) TCID50 / Cytopathic effect [CPE] (3days) TCID50: TCID50 as negative log of maximum virus dilution ratio; key to Cytopathic effect [CPE] (5days) △TCID50 / Cytopathic effect [CPE] (3days) △TCID50: difference from control TCID50, in negative log of virus dilution; details: HSV-1 (KOS), Example 7; for log reduction at 30 µg/mL / Cytopathic effect [CPE] (3days) △TCID50 / Cytopathic effect [CPE] (5days) △TCID50: difference from control
# Method: as §5, §7
# [7] = system: herpes simplex virus type 1 (KOS strain); test: One-step growth of virus, plaque assay with vero cells; assay type: cell-based; details: for Intracellular virus Average / inhibition at 30 µg/mL / log reduction at 30 µg/mL / Intracellular virus Control ratio % / Intracellular virus Control ratio -logT/C: 24 hours; for inhibition at 30 µg/mL / log reduction at 30 µg/mL: Human alphaherpesvirus 1, Vero, 24 h; for inhibition at 30 µg/mL: read-out: Intracellular virus Control ratio %; for log reduction at 30 µg/mL: read-out: Intracellular virus Control ratio -logT/C
# Method: Antiviral activity of Compound A and Compound B against one-step growth of herpes simplex virus type 1 (KOS strain) Cells grown in a monolayer, with a sample of a given compound diluted in a varying ratio added, were pretreated for 15 minutes. Then, the pretreated cells were infected with the herpes simplex virus type 1 (KOS strain) at an infecting ratio of 0.25 and left standing for 24 hours. At the end of the standing, the intracellular and extracellular amounts of virus were determined by the plaque assay with vero cells.
# [8] = system: vero cells; details: african green monkey
# Method: Compound A and Compound B were severally dissolved in distilled water in a concentration of 5 mg/ml, to prepare master solutions. Each of the master solutions was suitably diluted with an Eagle's MEM culture medium containing 10% fetal bovine serum. A 0.2-ml portion of the resultant dilution product was placed on vero cells cultured in advance on a microplate and grown in a monolayer, cultured further thereon at 37°C for three to five days. Samples taken severally after three days'and five days'culture were placed under a microscope and tested for cytopathogenic effect brought about by a chemical agent.
# [9] = system: vero cells; details: control ratio on propagation of vero cells, 72hr
# Method: Samples of the control group contained 0.1 ml of a culture solution (an Eagle's MEM culture medium containing 10% fetal bovine serum).
# The test was conducted by using three culture tubes per group, culturing the cells in the tubes at 37°C for three days, and taking count of live cells by the dye-exclusion method.
# [10] = 20 μg/ml, HSV-1 (HF strain), Example 5
molecule,measurement,setting,value
"O=c1[nH]c(=O)n([C@H]2C[C@H](O)[C@@H](CO)O2)cc1I [IDU, reference compound]",Cytopathic effect [CPE] (3days) Average,[1],2.25
same,Cytopathic effect [CPE] (6days) Average,[1],3.0
same,Cytopathic effect [CPE] (3days) ΔCPE,[1]; difference from control,0.5
same,Cytopathic effect [CPE] (6days) ΔCPE,[1]; difference from control,0
same,Cytopathic effect [CPE] (3days) TCID50,[2]; [10],6.3
same,Cytopathic effect [CPE] (6days) TCID50,[2]; [10],6.5
same,log reduction at 20 µg/mL,"[2]; Human alphaherpesvirus 1, 72 h, read-out: Cytopathic effect [CPE] (3days) ΔTCID50",0
same,log reduction at 20 µg/mL,"[2]; Human alphaherpesvirus 1, 144 h, read-out: Cytopathic effect [CPE] (6days) ΔTCID50",-0.2
same,Cytopathic effect [CPE] (3days) Average,[3],0.75
same,Cytopathic effect [CPE] (6days) Average,[3],1.25
same,Cytopathic effect [CPE] (3days) △CPE,[3]; difference from control,1.75
same,Cytopathic effect [CPE] (6days) △CPE,[3]; difference from control,1.75
same,Cytopathic effect [CPE] (3days) TCID50,[4],5.3
same,Cytopathic effect [CPE] (6days) TCID50,[4],5.5
same,log reduction at 20 µg/mL,"[4]; Human alphaherpesvirus 2, 72 h, difference from control, read-out: Cytopathic effect [CPE] (3days) △TCID50",1.4
same,Cytopathic effect [CPE] (3days) Average,[5]; 30 μg/ml,1.0
same,Cytopathic effect [CPE] (5days) Average,[5]; 30 μg/ml,2.0
same,Cytopathic effect [CPE] (3days) △CPE,[5]; 30 μg/ml,1.0
same,Cytopathic effect [CPE] (5days) △CPE,[5]; 30 μg/ml,1.0
same,Cytopathic effect [CPE] (3days) TCID50,[6]; 30 μg/ml,5.3
same,Cytopathic effect [CPE] (5days) TCID50,[6]; 30 μg/ml,6.0
same,log reduction at 30 µg/mL,"[6]; Human alphaherpesvirus 1, 72 h, 30 μg/ml, read-out: Cytopathic effect [CPE] (3days) △TCID50",0.2
same,log reduction at 30 µg/mL,"[6]; Human alphaherpesvirus 1, 120 h, 30 μg/ml, read-out: Cytopathic effect [CPE] (5days) △TCID50",0.3
same,Intracellular virus Average,"[7]; 30 μg/ml, extracellular virus",7.50×10^3 /dish
same,Intracellular virus Average,[7]; 30 μg/ml,1.00×10^6 /dish
same,inhibition at 30 µg/mL,"[7]; 30 μg/ml, extracellular virus",> 99.9%
same,log reduction at 30 µg/mL,"[7]; 30 μg/ml, extracellular virus",3.6
same,inhibition at 30 µg/mL,[7]; 30 μg/ml,99.8%
same,log reduction at 30 µg/mL,[7]; 30 μg/ml,2.61
K₇PW₁₀Ti₂O₄₀.6H₂O [Compound B],Cytopathic effect [CPE] (3days) Average,[5]; 100 μg/ml,0
same,Cytopathic effect [CPE] (5days) Average,[5]; 100 μg/ml,0
same,Cytopathic effect [CPE] (3days) △CPE,[5]; 100 μg/ml,2.0
same,Cytopathic effect [CPE] (5days) △CPE,[5]; 100 μg/ml,3.0
same,Cytopathic effect [CPE] (3days) Average,[5]; 200 μg/ml,0
same,Cytopathic effect [CPE] (5days) Average,[5]; 200 μg/ml,0
same,Cytopathic effect [CPE] (3days) △CPE,[5]; 200 μg/ml,2.0
same,Cytopathic effect [CPE] (5days) △CPE,[5]; 200 μg/ml,3.0
same,Cytopathic effect [CPE] (3days) TCID50,[6]; 100 μg/ml,3.5
same,Cytopathic effect [CPE] (5days) TCID50,[6]; 100 μg/ml,3.5
same,Cytopathic effect [CPE] (3days) △TCID50,[6]; 100 μg/ml,2.0
same,Cytopathic effect [CPE] (5days) △TCID50,[6]; 100 μg/ml,2.5
same,Cytopathic effect [CPE] (3days) TCID50,[6]; 200 μg/ml,3.5
same,Cytopathic effect [CPE] (5days) TCID50,[6]; 200 μg/ml,3.5
same,Cytopathic effect [CPE] (3days) △TCID50,[6]; 200 μg/ml,2.0
same,Cytopathic effect [CPE] (5days) △TCID50,[6]; 200 μg/ml,2.5
same,Intracellular virus Average,"[7]; 50 μg/ml, extracellular virus",5.83×10^5 /dish
same,Intracellular virus Control ratio %,"[7]; 50 μg/ml, extracellular virus",98.1%
same,Intracellular virus Control ratio -logT/C,"[7]; 50 μg/ml, extracellular virus",1.711
same,Intracellular virus Average,[7]; 50 μg/ml,6.00×10^5 /dish
same,Intracellular virus Control ratio %,[7]; 50 μg/ml,99.8%
same,Intracellular virus Control ratio -logT/C,[7]; 50 μg/ml,2.831
same,Intracellular virus Average,"[7]; 100 μg/ml, extracellular virus",2.10×10^5 /dish
same,Intracellular virus Control ratio %,"[7]; 100 μg/ml, extracellular virus",99.3%
same,Intracellular virus Control ratio -logT/C,"[7]; 100 μg/ml, extracellular virus",2.155
same,Intracellular virus Average,[7]; 100 μg/ml,1.12×10^5 /dish
same,Intracellular virus Control ratio -logT/C,[7]; 100 μg/ml,3.560
same,Intracellular virus Control ratio %,"[7]; 100 μg/ml, 1440 min",>99.9%
same,Intracellular virus Average,"[7]; 200 μg/ml, extracellular virus",4.95×10^4 /dish
same,Intracellular virus Control ratio %,"[7]; 200 μg/ml, extracellular virus",99.8%
same,Intracellular virus Control ratio -logT/C,"[7]; 200 μg/ml, extracellular virus",2.783
same,Intracellular virus Average,[7]; 200 μg/ml,1.07×10^3 /dish
same,Intracellular virus Control ratio -logT/C,[7]; 200 μg/ml,5.580
same,Intracellular virus Control ratio %,"[7]; 200 μg/ml, 1440 min",>99.9%
same,control of the intracellular and extracellular viruses in the one-step growth,"[7]; concentration not given, 1440 min",not less than 99.9%
same,maximum nontoxic doses (MNTD),[8],> 200 µg/mL
same,Cellular toxity (3 days) Maximum nontoxic does,[8]; 72 h,>200 µg/mL
same,Cellular toxity (5 days) Maximum nontoxic does,[8]; 120 h,>200 µg/mL
same,Ratio (%),[9]; 100 μg/ml,absolutely no effect
same,Ratio (%),[9]; 200 μg/ml,absolutely no effect
